Like-named read-outs stand apart in the source and are kept apart here.

For one assay, the target named is GCN2 kinase (Homo sapiens, UniProt Q9P2K8). Briefly: GCN2 enzyme inhibition assay (Transcreener ADP2 fluorescence polarization). The note with it: 280 μM ATP, 4 nM GCN2 kinase. The class given is biochemical. Summed up: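 4 nM GCN2 + 200 μM (RS)7 + compound (0–8 μM), 10 min preinc.; start with ATP (280 μM final); 1 h, 25 °C; pH 7.5 Tris/NaCl/MgCl2/DTT; ADP FP readout; IC50, Ki(app) via tight-binding fit.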
(In general: Fluorescence polarisation rises when a labelled molecule tumbles more slowly, as on binding a larger partner.)

Assay [1] deals with intracellular GCN2 (phosphorylation of the GCN2 substrate eIF2α) (Homo sapiens, UniProt Q9P2K8). Nature of the assay: GCN2 cellular inhibition assay (AlphaScreen SureFire P-eIF2α Ser51, borrelidin-treated U2OS cells). The assay is classed as cell-based. The method, boiled down:
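Borrelidin at 10 μM is added to U2OS cells immediately after compound (4-fold dilution series, 40 μM top final) for 1 h at 37 °C. Phosphorylated eIF2α Ser51 in lysates is quantified by AlphaScreen and expressed as percent inhibition against borrelidin-stimulated controls.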
(Bead proximity is the source of the signal in Alpha formats.)

[2] abbreviates: compounds of Formula V, U2OS cells, 10 μM borrelidin, 1 h, read-out: GCN2 Biomarker (IC50).
Where [3] appears, read: compounds of Formula II, biomarker assay, phosphorylated eIF2α Ser51 in borrelidin-treated U2OS cells.

Chain of GCN2 kinase (Q9P2K8 whole entry): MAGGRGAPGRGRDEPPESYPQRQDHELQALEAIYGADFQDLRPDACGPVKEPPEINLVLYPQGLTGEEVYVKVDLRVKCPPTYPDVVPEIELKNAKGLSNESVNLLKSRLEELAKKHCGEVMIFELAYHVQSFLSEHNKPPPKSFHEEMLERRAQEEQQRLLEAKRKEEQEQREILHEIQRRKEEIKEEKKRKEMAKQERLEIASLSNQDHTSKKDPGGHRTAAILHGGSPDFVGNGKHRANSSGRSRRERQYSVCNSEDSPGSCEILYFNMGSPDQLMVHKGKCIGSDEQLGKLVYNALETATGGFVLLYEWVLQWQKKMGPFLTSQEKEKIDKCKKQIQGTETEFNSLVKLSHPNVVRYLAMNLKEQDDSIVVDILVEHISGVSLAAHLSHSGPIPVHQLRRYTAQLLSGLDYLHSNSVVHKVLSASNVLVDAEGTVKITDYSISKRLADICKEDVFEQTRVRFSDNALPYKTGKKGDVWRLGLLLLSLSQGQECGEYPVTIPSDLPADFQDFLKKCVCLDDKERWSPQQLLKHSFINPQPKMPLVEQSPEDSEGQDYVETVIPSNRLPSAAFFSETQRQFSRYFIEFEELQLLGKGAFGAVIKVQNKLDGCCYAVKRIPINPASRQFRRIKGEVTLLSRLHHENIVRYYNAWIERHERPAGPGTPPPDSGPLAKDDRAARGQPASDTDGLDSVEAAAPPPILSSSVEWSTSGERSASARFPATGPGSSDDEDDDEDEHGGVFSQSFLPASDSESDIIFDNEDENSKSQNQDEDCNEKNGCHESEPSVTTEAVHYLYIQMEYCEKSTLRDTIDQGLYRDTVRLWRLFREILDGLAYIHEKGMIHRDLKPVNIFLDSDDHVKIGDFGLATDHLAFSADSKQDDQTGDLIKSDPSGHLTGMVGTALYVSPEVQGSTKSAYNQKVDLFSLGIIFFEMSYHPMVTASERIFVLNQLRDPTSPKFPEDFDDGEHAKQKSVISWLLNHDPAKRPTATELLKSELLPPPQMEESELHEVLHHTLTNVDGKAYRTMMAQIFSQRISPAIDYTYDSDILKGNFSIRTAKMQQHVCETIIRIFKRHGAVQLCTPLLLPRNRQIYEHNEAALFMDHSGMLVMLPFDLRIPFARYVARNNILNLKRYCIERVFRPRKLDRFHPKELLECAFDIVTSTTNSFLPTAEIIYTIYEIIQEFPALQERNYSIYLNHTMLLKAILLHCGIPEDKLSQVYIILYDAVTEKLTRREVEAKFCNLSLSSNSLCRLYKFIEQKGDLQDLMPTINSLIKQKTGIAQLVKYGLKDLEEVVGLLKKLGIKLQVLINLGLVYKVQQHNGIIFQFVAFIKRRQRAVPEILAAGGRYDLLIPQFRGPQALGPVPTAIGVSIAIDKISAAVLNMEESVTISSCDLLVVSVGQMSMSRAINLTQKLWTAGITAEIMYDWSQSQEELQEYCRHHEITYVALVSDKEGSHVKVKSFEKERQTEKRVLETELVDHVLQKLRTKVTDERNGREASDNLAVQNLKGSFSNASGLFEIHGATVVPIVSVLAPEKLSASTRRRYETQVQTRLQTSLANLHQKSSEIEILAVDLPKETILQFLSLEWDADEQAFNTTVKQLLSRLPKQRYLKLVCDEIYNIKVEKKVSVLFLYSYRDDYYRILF
Chain of intracellular GCN2 (phosphorylation of the GCN2 substrate eIF2α) (Q9P2K8 whole entry): as above

The term Ki denotes the equilibrium dissociation constant of an inhibitor or competing ligand from its target. A lower Ki goes with a stronger hold on the target. One may read the IC50 as the midpoint of a concentration-inhibition curve. `C[C@H]1CN(c2ccnc(-c3cnc4sc(C(F)F)cn34)n2)C[C@@H](CNS(C)(=O)=O)C1(F)F` (stereo in doubt) [Compound V-1, N-((-1-(2-(2-(Difluoromethyl)imidazo[2,1-b]thiazol-5-yl)pyrimidin-4-yl)-4,4-difluoro-5-methylpiperidin-3-yl)methyl)methanesulfonamide] gave a Ki on GCN2 kinase (compounds of Formula V) of less than 10 nM. In addition, the IC50 in assay [1] (setting [2]) was 500 to 5000 nM.
Taken in the same sequence, the figures for `FC(F)(F)c1cn2c(-c3nccc(N4CCO[C@H](c5cn[nH]c5)C4)n3)cnc2s1` (stereo in doubt) [Compound V-3, 2-(1H-Pyrazol-4-yl)-4-(2-(2-(trifluoromethyl)imidazo[2,1-b]thiazol-5-yl)pyrimidin-4-yl)morpholine] were less than 10 nM and less than 500 nM.
As to `FC(F)(F)c1cn2c(-c3nccc(N4CCO[C@@H](c5cn[nH]c5)C4)n3)cnc2s1` (stereo in doubt) [Compound V-4, 2-(1H-pyrazol-4-yl)-4-(2-(2-(trifluoromethyl)imidazo[2,1-b]thiazol-5-yl)pyrimidin-4-yl)morpholine], the Ki on GCN2 kinase (compounds of Formula V) is 10 to 100 nM. Moreover, the IC50 in assay [1] (setting [2]) was 500 to 5000 nM.
Taken in the same sequence, the figures for `FC(F)(F)c1cn2c(-c3nccc(N4CCC(c5cn[nH]c5)C4)n3)cnc2s1` (stereo not drawn) [Compound V-7, 5-[4-[3-(1H-Pyrazol-4-yl)pyrrolidin-1-yl]pyrimidin-2-yl]-2-(trifluoromethyl)imidazo[2,1-b]thiazole] were 10 to 100 nM and 500 to 5000 nM.
Compound `NC(=O)[C@H]1CCCN(c2ccnc(-c3cnc4sc(C(F)(F)F)cn34)n2)C1` [Compound V-10, (3S)-1-[2-[2-(Trifluoromethyl)imidazo[2,1-b]thiazol-5-yl]pyrimidin-4-yl]piperidine-3-carboxamide] returned a Ki at GCN2 kinase (compounds of Formula V) of less than 10 nM. Also, in assay [1] (setting [2]), the IC50 was less than 500 nM.
The matching figures for `CC1CN(c2ccnc(-c3cnc4sc(C(F)(F)F)cn34)n2)C(C)C(c2cn[nH]c2)N1` (stereo not drawn) [Compound V-13, 5-[4-[2,5-Dimethyl-3-(1H-pyrazol-4-yl)piperazin-1-yl]pyrimidin-2-yl]-2-(trifluoromethyl)imidazo[2,1-b]thiazole]: less than 10 nM and less than 500 nM.
Taken in the same sequence, the figures for `CC1CN(c2ccnc(-c3cnc4sc(C(F)F)cn34)n2)CC(CNS(C)(=O)=O)C1(F)F` (stereo not drawn) [Compound V-14, N-[[1-[2-[2-(Difluoromethyl)imidazo[2,1-b]thiazol-5-yl]pyrimidin-4-yl]-4,4-difluoro-5-methyl-3-piperidyl]methyl]methanesulfonamide] were 10 to 100 nM and 500 to 5000 nM.
Compound `FC(F)(F)c1cn2c(-c3nccc(N4CCOC(c5cn[nH]c5)C4)n3)cnc2s1` (stereo not drawn) [Compound V-15, 2-(1H-Pyrazol-4-yl)-4-[2-[2-(trifluoromethyl)imidazo[2,1-b]thiazol-5-yl]pyrimidin-4-yl]morpholine] registered a Ki at GCN2 kinase (compounds of Formula V) of less than 10 nM. Further, in assay [1] (setting [2]), the IC50 was less than 500 nM.
Taken in the same sequence, the figures for `CC1CC(CS(C)(=N)=O)C(C)N(c2ccnc(-c3cnc4sc(C(F)(F)F)cn34)n2)C1` (stereo not drawn) [Compound V-16, ((2,5-Dimethyl-1-(2-(2-(trifluoromethyl)imidazo[2,1-b]thiazol-5-yl)pyrimidin-4-yl)piperidin-3-yl)methyl)(imino)(methyl)-λ^6-sulfanone] were 100 to 1000 nM and greater than 5000 nM.
Taken in the same sequence, the figures for `CC1CC(CS(C)(=N)=O)C(C)N(c2ccnc(-c3cnc4sc(C(F)(F)F)cn34)n2)C1` (stereo not drawn) [Compound V-17, ((2,5-Dimethyl-1-(2-(2-(trifluoromethyl)imidazo[2,1-b]thiazol-5-yl)pyrimidin-4-yl)piperidin-3-yl)methyl)(imino)(methyl)-λ^6-sulfanone] were 10 to 100 nM and 500 to 5000 nM.
The matching figures for `FC(F)(F)c1cn2c(-c3nccc(N4CCOC(c5cn[nH]c5)C4)n3)cnc2s1` (stereo not drawn) [Compound V-20, 2-(1H-pyrazol-4-yl)-4-(2-(2-(trifluoromethyl)imidazo[2,1-b]thiazol-5-yl)pyrimidin-4-yl)morpholine]: less than 10 nM and less than 500 nM.
As to `CC1CCC(CNS(C)(=O)=O)CN1c1cc(-c2cnc3ccc(C(F)F)nn23)ncn1` (stereo not drawn) [II-3, N-((1-(6-(6-(Difluoromethyl)imidazo[1,2-b]pyridazin-3-yl)pyrimidin-4-yl)-6-methylpiperidin-3-yl)methyl)methanesulfonamide], the Ki on GCN2 kinase (compounds of Formula II) is less than 10 nM. The compound also gave an IC50 in assay [1] (setting [3]) of 500 to 5000 nM.
Taken in the same sequence, the figures for `FC(F)c1ccc2ncc(-c3cc(N4CCOC(c5cn[nH]c5)C4)ncn3)n2n1` (stereo not drawn) [II-4, 4-(6-(6-(Difluoromethyl)imidazo[1,2-b]pyridazin-3-yl)pyrimidin-4-yl)-2-(1H-pyrazol-4-yl)morpholine] were 10 to 1000 nM and 500 to 5000 nM.
The matching figures for `CN1C(=O)CN(c2cc(-c3cnc4ccc(C(F)F)nn34)ncn2)C[C@H]1CNS(C)(=O)=O` [II-7, (S)—N-((4-(6-(6-(Difluoromethyl)imidazo[1,2-b]pyridazin-3-yl)pyrimidin-4-yl)-1-methyl-6-oxopiperazin-2-yl)methyl)methanesulfonamide]: greater than 1000 nM and greater than 5000 nM.
Taken in the same sequence, the figures for `CC1CC(CNS(C)(=O)=O)CN1c1cc(-c2cnc3ccc(C(F)F)nn23)ncn1` (stereo not drawn) [II-8, N-((1-(6-(6-(Difluoromethyl)imidazo[1,2-b]pyridazin-3-yl)pyrimidin-4-yl)-5-methylpyrrolidin-3-yl)methyl)methanesulfonamide] were 10 to 1000 nM and 500 to 5000 nM.
Compound `OC[C@@H]1CN(c2cc(-c3cnc4ccc(C(F)F)nn34)ncn2)CCO1` [II-9, (S)-(4-(6-(6-(Difluoromethyl)imidazo[1,2-b]pyridazin-3-yl)pyrimidin-4-yl)morpholin-2-yl)methanol] yielded a Ki on GCN2 kinase (compounds of Formula II) of 10 to 1000 nM. Moreover, the IC50 in assay [1] (setting [3]) lay in the range of 500 to 5000 nM.
The matching figures for `CS(C)(=O)=NC[C@@H]1CN(c2cc(-c3cnc4ccc(C(F)F)nn34)ncn2)CCO1` [II-10, [(2S)-4-[6-[6-(Difluoromethyl)imidazo[1,2-b]pyridazin-3-yl]pyrimidin-4-yl]morpholin-2-yl]methylimino-dimethyl-oxo-sulfane]: 10 to 1000 nM and greater than 5000 nM.
The matching figures for `CS(=O)(=O)NCC1CN(c2cc(-c3cnc4ccc(C(F)F)nn34)ncn2)c2ccccc21` (stereo not drawn) [II-11, N-((1-(6-(6-(Difluoromethyl)imidazo[1,2-b]pyridazin-3-yl)pyrimidin-4-yl)indolin-3-yl)methyl)methanesulfonamide]: 10 to 1000 nM and greater than 5000 nM.
In turn, `CS(=O)(=O)NCC1CC(O)CN(c2cc(-c3cnc4ccc(C(F)F)nn34)ncn2)C1` (stereo not drawn) [II-12, N-((1-(6-(6-(Difluoromethyl)imidazo[1,2-b]pyridazin-3-yl)pyrimidin-4-yl)-5-hydroxypiperidin-3-yl)methyl)methanesulfonamide] displayed a Ki on GCN2 kinase (compounds of Formula II) of 10 to 1000 nM. This compound registered an IC50 in assay [1] (setting [3]) of 500 to 5000 nM.
Taken in the same sequence, the figures for `CS(=O)(=O)NCC1CC(O)CN(c2cc(-c3cnc4ccc(C(F)F)nn34)ncn2)C1` (stereo not drawn) [II-13, N-((1-(6-(6-(Difluoromethyl)imidazo[1,2-b]pyridazin-3-yl)pyrimidin-4-yl)-5-hydroxypiperidin-3-yl)methyl)methanesulfonamide] were less than 10 nM and 500 to 5000 nM.
In the case of `CS(=O)(=O)N1CCCC(c2cc(-c3cnc4ccc(C(F)F)nn34)ncn2)CC1` (stereo not drawn) [II-14, 6-(Difluoromethyl)-3-(6-(1-(methylsulfonyl)azepan-4-yl)pyrimidin-4-yl)imidazo[1,2-b]pyridazine], the Ki at GCN2 kinase (compounds of Formula II) is 10 to 1000 nM. Further, in assay [1] (setting [3]), the IC50 was greater than 5000 nM.
`O=C1CCN(c2cc(-c3cnc4ccc(C(F)F)nn34)ncn2)CCN1` [II-15, 1-(6-(6-(Difluoromethyl)imidazo[1,2-b]pyridazin-3-yl)pyrimidin-4-yl)-1,4-diazepan-5-one]: the Ki at GCN2 kinase (compounds of Formula II) lay in the range of 10 to 1000 nM. Besides, in assay [1] (setting [3]), the IC50 was greater than 5000 nM.
The matching figures for `NC(=O)C1CN(c2cc(-c3cnc4ccc(C(F)F)nn34)ncn2)c2ccccc21` (stereo not drawn) [II-16, 1-(6-(6-(Difluoromethyl)imidazo[1,2-b]pyridazin-3-yl)pyrimidin-4-yl)indoline-3-carboxamide]: 10 to 1000 nM and greater than 5000 nM.
The matching figures for `CS(=O)(=O)NCCC1CCN(c2cc(-c3cnc4ccc(C(F)F)nn34)ncn2)C1` (stereo not drawn) [II-17, N-(2-(1-(6-(6-(Difluoromethyl)imidazo[1,2-b]pyridazin-3-yl)pyrimidin-4-yl)pyrrolidin-3-yl)ethyl)methanesulfonamide]: 10 to 1000 nM and 500 to 5000 nM.
Taken in the same sequence, the figures for `CC1CN(c2cc(-c3cnc4ccc(C(F)F)nn34)ncn2)CC1CNS(C)(=O)=O` (stereo not drawn) [II-18, N-((1-(6-(6-(Difluoromethyl)imidazo[1,2-b]pyridazin-3-yl)pyrimidin-4-yl)-4-methylpyrrolidin-3-yl)methyl)methanesulfonamide] were less than 10 nM and less than 500 nM.
With `CS(=O)(=O)C1CCCN(c2cc(-c3cnc4ccc(C(F)F)nn34)ncn2)C1` (stereo not drawn) [II-19, 6-(Difluoromethyl)-3-(6-(3-(methylsulfonyl)piperidin-1-yl)pyrimidin-4-yl)imidazo[1,2-b]pyridazine], the Ki on GCN2 kinase (compounds of Formula II) was in the range of 10 to 1000 nM. Also, the IC50 in assay [1] (setting [3]) lay in the range of 500 to 5000 nM.
Taken in the same sequence, the figures for `FC(F)c1ccc2ncc(-c3cc(N4CCc5ccccc54)ncn3)n2n1` [II-20, 6-(Difluoromethyl)-3-(6-(indolin-1-yl)pyrimidin-4-yl)imidazo[1,2-b]pyridazine] were 10 to 1000 nM and greater than 5000 nM.

The values are drawn from patent US10988477B2 (Merck Patent GmbH, priority 2018, dated 2021).
